Read-outs that look alike come from different tables or passages of the source.
What was measured:
MDA-MB-231 cells [1] = assay: Anti-proliferative activity, MDA-MB-231 breast carcinoma cells (Coulter counting); assay type: cell-based; conditions: Homo sapiens, MDA-MB-231, 72 h, read-out: Tumor cells IC50 MDA-MB-231
Text: (§1) The anti-proliferative activity of the synthesized benzofurane derivatives was studied in three human cancer cell lines [breast carcinoma (MDA-MB-231), lymphoblastic leukemia (CEM) and cervical carcinoma (HeLa) cells] and one endothelial cell line [human microvascular endothelial cells (HMEC-1)].
(§2) The human microvascular endothelial cell line HMEC-1 was obtained at passage 12 from the Centers for Disease Control and Prevention (Atlanta, GA, USA) and used from passage 17 till 27. Human breast carcinoma (MDA-MB-231), human cervical carcinoma (HeLa) and human T-lymphoid (CEM) cells were obtained from ATCC (Middlesex, UK). Cell lines were maintained in culture for up to 3 months and grown in DMEM, supplemented with 10% FBS, 0.01 M Hepes and 1 mM sodium pyruvate. All cells were cultured in a humidified 5% CO2 incubator at 37 °C.
(§3) HMEC-1 cells were seeded in 48-well plates at 20,000 cells/well. After 24 h, 5-fold dilutions of the compounds were added. The cells were allowed to proliferate 4 days in the presence of the compounds, trypsinized, and counted by means of a Coulter counter (Analis, Belgium). HeLa and MDA-MB-231 cells were seeded in 48-well plates at 10,000 cells/well. After 24 h, different concentrations of the compounds were added. After 3 days of incubation, the cells were trypsinized and counted in a Coulter counter. Suspension cells (human lymphoid Cem cells) were seeded in 96-well plates at 60,000 cells/well in the presence of different concentrations of the compounds, allowed to proliferate for 96 h, and counted in a Coulter counter. The 50% inhibitory concentration (IC50) was defined as the compound concentration required to reduce cell proliferation by 50%.

CEM cells = assay: Anti-proliferative activity, CEM lymphoblastic leukemia cells (Coulter counting); assay type: cell-based; conditions: Homo sapiens, CCRF-CEM, 96 h, read-out: Tumor cells IC50 CEM
Text: as §1, §2, §3

HeLa cells = assay: Anti-proliferative activity, HeLa cervical carcinoma cells (Coulter counting); assay type: cell-based; conditions: Homo sapiens, 72 h, read-out: Tumor cells IC50 HeLa
Text: as §1, §2, §3

HMEC-1 cells [2] = assay: Anti-proliferative activity, HMEC-1 microvascular endothelial cells (Coulter counting); assay type: cell-based; conditions: Homo sapiens, HMEC-1, 96 h, read-out: Endothelial cells IC50 HMEC-1
Text: as §1, §2, §3

A2780 cells = assay: Anti-proliferative activity, A2780 ovarian carcinoma cells; assay type: cell-based, human; conditions: mean ± standard error of three independent experiments
Text: (§4) One of the most relevant causes of tumor resistance to chemotherapy is the overexpression of membrane pumps which remove the chemotherapeutic agents from the treated cells.

A2780AD cells = assay: Anti-proliferative activity, A2780AD (MDR overexpressing P-glycoprotein) ovarian carcinoma cells; assay type: cell-based, human; conditions: P-glycoprotein overexpressing resistant line, mean ± standard error of three independent experiments, read-out: A2780 AD IC50
Text: as §4

MDA-MB-231 cells [3] = assay: Cell cycle analysis (propidium iodide, flow cytometry); assay type: cell-based, human; conditions: 0.3 µM, 24 h treatment
Description: Tubulin-binding agents interfere with mitotic spindle formation during cell division. […] Thus, we investigated whether 27 and 28 affect the progression of human breast cancer MDA-MB-231 cells through the cell cycle. […] In contrast, compounds 27 and 28 arrested the cell cycle in the M phase (mitosis) at concentrations as low as 0.03 and 0.1 μM (for compound 27 and 28 respectively).
(§5) Figure 6 Mechanism of action of the benzofurane derivatives. (A) Inhibition of cell cycle progression. MDA-MB-231 cells were treated with DMSO (control) or compounds 8, 27 or 28 for 24 h. Next, the cells were harvested, stained with propidium iodide (PI), and cell cycle distribution was evaluated by flow cytometry. Percentages of cells in the different phases of the cell cycle are indicated. (B) Caspase-3 activity. MDA-MB-231 cells were seeded in 48-well plates at 40,000 cells/cm². After 24 h, different concentrations of compounds 8, 27 or 28 and 2 µM of the caspase-3 substrate DEVD-NucView488 were added. After 16 h, the cells were incubated with 2 µg/ml Hoechst 33342 to stain the nucleus, and imaged. (C) Disruption of the vascular network. HMEC-1 cells were cultured on matrigel for 3 h to allow the formation of tube-like structures. Next, different concentrations of compounds were added. Upper panel: After 90 min, pictures were taken and the tubular network was scored (3: intact network, 0: network completely destroyed). Bars show average ± SEM (n = 4). Lower panel: Microscopic pictures of the tubular network 3 h after addition of compound.
MDA-MB-231 cells were seeded in 6-well plates at 125,000 cells/well in DMEM with 10% FBS. After 24 h, the cells were exposed to different concentrations of the compounds. After 24 h, the DNA of the cells was stained with propidium iodide using the CycleTEST PLUS DNA Reagent Kit (BD Biosciences, San Jose, CA). The DNA content of the stained cells was assessed by flow cytometry on a FACSCalibur flow cytometer and analyzed with CellQuest software (BD Biosciences) within 3 h after staining. Cell debris and clumps were excluded from the analysis by appropriate dot plot gating. Percentages of sub-G1, G1, S, and G2/M cells were estimated using appropriate region markers.

MDA-MB-231 cells [4] = assay: Caspase-3 activity / apoptosis in live cells (fluorescence microscopy); assay type: cell-based, human; conditions: 1 µM, after 24 h
Description: as §5
To confirm the capacity of compounds 27 and 28 to induce apoptosis, MDA-MB-231 cells were treated with the compounds for 24 h in the presence of NucView® 530 Caspase-3. This substrate is cleaved by active caspase-3 activity (the main executioner enzyme during apoptosis) to generate a fluorescent derivative that is analyzed using fluorescence microscopy.
MDA-MB-231 cells were seeded at 40,000 cells/cm². After 24 h, cells were incubated in Fluorobrite DMEM (Gibco), containing the compound and 2 µM of the caspase-3 substrate DEVD-NucView488 (Biotium, Hayward, CA). After 16 h, the DNA was stained with Hoechst33342 and the cells were imaged by fluorescence microscopy.

HMEC-1 cells [5] = assay: IncuCyte scratch wound migration assay with PI uptake; assay type: cell-based
Description: Proper tubulin organization is not only required for cell division but also for cell motility and migration. Therefore, we evaluated the capacity of the compounds to inhibit the migration of HMEC-1 endothelial cells. To this end, we used the 96-well IncuCyte® scratch wound assay. After the creation of a cell-free zone (wound) in a confluent cell monolayer, compounds were added, and relative wound density was measured every minute and visualized in time-course plots. PI was added to all wells to visualize toxicity over time, i.e. only dead cells take up this cell-impermeable dye.
Figure 7 Inhibition of HMEC-1 migration. The 96-well IncuCyte® scratch wound assay was used to create a cell-free zone (wound) in a confluent cell monolayer. Next, compounds were added and the relative wound density was measured every minute and visualized in time-course plots (left panels). PI is added to all wells to visualize toxicity over time, i.e. only dead cells take up this cell-impermeable dye (right panels). Average ± SEM (n = 3) are shown.
Wounds were created in confluent HMEC-1 cells by means of the “Incucyte® wound maker”. Next, different concentrations of compound and PI were added and images were taken every 2 min for the duration of the experiment. The algorithm masks each phase-contrast image to identify the position of the wounded (cell-free) and unwounded (cell-occupied) zones. Relative wound density is calculated and visualized in time-course plots.

αβ-tubulin = conditions: relative to prototypes 7 and 8; cited from earlier work
[6] = tested on: tumor and endothelial cells; parameters: method as in PMID 24773591; conditions: relative to prototypes 7 and 8; cited from earlier work
[7] = mean ± SD of three independent experiments, 3 days of incubation
[8] = mean ± SD of three independent experiments
[9] = mean ± SD of three independent experiments, 4 days

| Structure (SMILES) | IC50 (A2780 cells; Homo sapiens, A2780) [nM] | IC50 (A2780AD cells; Homo sapiens, A2780AD) [nM] | IC50 (MDA-MB-231 cells [1]; [7]) [nM] | IC50 (CEM cells; [8]) [nM] | IC50 (HeLa cells; [7]) [nM] | melting point [°C] | IC50 (HMEC-1 cells [2]; [9]) [nM] | further results |
| --- | --- | --- | --- | --- | --- | --- | --- | --- |
| COc1ccc(/C=C\c2cc(OC)c(OC)c(OC)c2)cc1OP(=O)(O)O [CA-4P, reference compound] |  |  |  |  |  |  |  | IC50 (MDA-MB-231 cells [1]): 2.1 ± 0.3 nM; IC50 (CEM cells): 11 ± 1 nM; IC50 (HeLa cells): 13 ± 1 nM; IC50 (HMEC-1 cells [2]): 2.9 ± 0.1 nM |
| CCOc1ccccc1NC(C)=C1C(=O)CC(c2ccccc2)CC1=O (stereo not drawn) [Compound 8] | 116 ± 8 | 111 ± 16 |  |  |  |  |  | IC50 (MDA-MB-231 cells [1]): 68 ± 5 nM; IC50 (CEM cells): 190 ± 10 nM; IC50 (HeLa cells): 180 nM; IC50 (HMEC-1 cells [2]): 100 ± 20 nM; cell cycle arrest (MDA-MB-231 cells [3]): no longer active; apoptotic rate (apoptotic cells, caspase-3 substrate) (MDA-MB-231 cells [4]): 9%; lowest concentration inhibiting wound closure (HMEC-1 cells [5]): 0.5 µM; uptake of PI (toxicity) (HMEC-1 cells [5]; at the lowest concentration inhibiting wound closure (0.5, 0.06 and 0.06 µM)): No increased uptake of PI |
| CCC(Nc1ccccc1O)=C1C(=O)CC(c2ccccc2)CC1=O (stereo not drawn) [Compound 9] |  |  |  |  |  |  |  | fold less active in tubulin binding (αβ-tubulin): 100 fold; fold less active in antiproliferative assays [6]: 100 fold |
| CC(=O)O[C@H]1C(=O)[C@@]2(C)[C@H]([C@H](OC(=O)c3ccccc3)[C@]3(O)C[C@H](OC(=O)[C@H](O)[C@@H](NC(=O)c4ccccc4)c4ccccc4)C(C)=C1C3(C)C)[C@]1(OC(C)=O)CO[C@@H]1C[C@@H]2O [Paclitaxel, reference compound] | 1 ± 0.1 | 2100 ± 300 |  |  |  |  |  |  |
| COc1cc([C@@H]2c3cc4c(cc3[C@H](O)[C@H]3COC(=O)[C@H]23)OCO4)cc(OC)c1OC [Podophillotoxin, reference compound] |  |  |  |  |  |  |  | IC50 (A2780 cells): 64 ± 9 nM; IC50 (A2780AD cells): 74 ± 12 nM |

Continued, in another order:

| IC50 (A2780 cells; Homo sapiens, A2780) [nM] | IC50 (A2780AD cells; Homo sapiens, A2780AD) [nM] | IC50 (MDA-MB-231 cells [1]; [7]) [nM] | IC50 (CEM cells; [8]) [nM] | IC50 (HeLa cells; [7]) [nM] | melting point [°C] | Structure (SMILES) | IC50 (HMEC-1 cells [2]; [9]) [nM] | further results |
| --- | --- | --- | --- | --- | --- | --- | --- | --- |
|  |  | 53 ± 6 | 38 ± 1 | 160 ± 10 | 127 to 129 | CC(Nc1cccc2cc(C)oc12)=C1C(=O)CC(c2ccccc2)CC1=O (stereo not drawn) [Compound 14, 2-(1-((2-Methylbenzofuran-7-yl)amino)ethylidene)-5-phenylcyclohexane-1,3-dione] | 65 ± 3 |  |
| 440 ± 20 | 660 ± 50 | 170 ± 10 | 640 ± 360 | 890 ± 30 | 178 to 180 | COC(=O)c1cc2cccc(NC(C)=C3C(=O)CC(c4ccccc4)CC3=O)c2o1 (stereo not drawn) [Compound 20, Methyl 7-((1-(2,6-dioxo-4-phenylcyclohexylidene)ethyl)amino)benzofuran-2-carboxylate] | 1600 ± 600 |  |
|  |  | 1500 ± 600 | 5500 ± 1700 | 12000 ± 6000 | 108 to 110 | CNC(=O)c1cc2cccc(NC(C)=C3C(=O)CC(c4ccccc4)CC3=O)c2o1 (stereo not drawn) [Compound 21, 7-((1-(2,6-Dioxo-4-phenylcyclohexylidene)ethyl)amino)-N-methylbenzofuran-2-carboxamide] | 14000 ± 11000 |  |
|  |  | 15 ± 2 | 40 ± 2 | 140 ± 40 | 120 to 122 | CC(Nc1cccc2cc(CO)oc12)=C1C(=O)CC(c2ccccc2)CC1=O (stereo not drawn) [Compound 22, 2-(1-((2-(Hydroxymethyl)benzofuran-7-yl)amino)ethylidene)-5-phenylcyclohexane-1,3-dione] | 150 ± 50 |  |
